{
  "source": "the kinase profiling compilation of Christmann-Franck et al. (2016)",
  "assay_in_all_cases": "radiometric filter-binding kinase assay, Kinase HotSpot",
  "conditions_in_all_cases": "compound 0.5 µM; ATP 10 µM",
  "key": {"AKT2 (human)": {"target": "AKT2 (human) (UniProt P31751)"}, "BMX (human)": {"target": "BMX (human) (UniProt P51813)"}, "BRSK1 (human)": {"target": "BRSK1 (human) (UniProt Q8TDC3)"}, "CAMK2D (human)": {"target": "CAMK2D (human) (UniProt Q13557)"}, "CDC42BPB (human)": {"target": "CDC42BPB (human) (UniProt Q9Y5S2)"}, "CDK4 CCND1 (human)": {"target": "CDK4 CCND1 (human) (UniProt P24385+P11802)"}, "CLK2 (human)": {"target": "CLK2 (human) (UniProt P49760)"}, "CSK (human)": {"target": "CSK (human) (UniProt P41240)"}, "DAPK1 (human)": {"target": "DAPK1 (human) (UniProt P53355)"}, "DMPK (human)": {"target": "DMPK (human) (UniProt Q09013)"}, "EPHA4 (human)": {"target": "EPHA4 (human) (UniProt P54764)"}, "EPHB1 (human)": {"target": "EPHB1 (human) (UniProt P54762)"}, "GRK6 (human)": {"target": "GRK6 (human) (UniProt P43250)"}, "GSG2 (human)": {"target": "GSG2 (human) (UniProt Q8TF76)"}, "IKBKE (human)": {"target": "IKBKE (human) (UniProt Q14164)"}, "LCK (human)": {"target": "LCK (human) (UniProt P06239)"}, "LIMK1 (human)": {"target": "LIMK1 (human) (UniProt P53667)"}, "MAP2K1 (human)": {"target": "MAP2K1 (human) (UniProt Q02750)"}, "MAP3K7 TAB1 (human)": {"target": "MAP3K7 TAB1 (human) (UniProt O43318+Q15750)"}, "MLTK (human)": {"target": "MLTK (human) (UniProt Q9NYL2)"}, "NEK2 (human)": {"target": "NEK2 (human) (UniProt P51955)", "sequence (P51955 whole entry, looked up)": "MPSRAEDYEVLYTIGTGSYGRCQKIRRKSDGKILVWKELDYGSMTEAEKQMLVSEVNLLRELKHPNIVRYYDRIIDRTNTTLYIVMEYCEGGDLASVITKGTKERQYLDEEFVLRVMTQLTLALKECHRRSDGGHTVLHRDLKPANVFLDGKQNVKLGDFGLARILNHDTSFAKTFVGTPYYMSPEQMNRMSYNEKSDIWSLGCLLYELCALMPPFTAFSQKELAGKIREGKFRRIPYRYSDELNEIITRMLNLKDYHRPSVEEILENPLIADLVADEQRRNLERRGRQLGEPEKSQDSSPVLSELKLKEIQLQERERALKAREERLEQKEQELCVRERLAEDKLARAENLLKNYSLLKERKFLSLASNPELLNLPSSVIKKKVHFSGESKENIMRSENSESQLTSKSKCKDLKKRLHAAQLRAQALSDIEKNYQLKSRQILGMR"}, "NEK9 (human)": {"target": "NEK9 (human) (UniProt Q8TD19)"}, "NTRK3 (human)": {"target": "NTRK3 (human) (UniProt Q16288)"}, "NUAK2 (human)": {"target": "NUAK2 (human) (UniProt Q9H093)", "sequence (Q9H093 whole entry, looked up)": "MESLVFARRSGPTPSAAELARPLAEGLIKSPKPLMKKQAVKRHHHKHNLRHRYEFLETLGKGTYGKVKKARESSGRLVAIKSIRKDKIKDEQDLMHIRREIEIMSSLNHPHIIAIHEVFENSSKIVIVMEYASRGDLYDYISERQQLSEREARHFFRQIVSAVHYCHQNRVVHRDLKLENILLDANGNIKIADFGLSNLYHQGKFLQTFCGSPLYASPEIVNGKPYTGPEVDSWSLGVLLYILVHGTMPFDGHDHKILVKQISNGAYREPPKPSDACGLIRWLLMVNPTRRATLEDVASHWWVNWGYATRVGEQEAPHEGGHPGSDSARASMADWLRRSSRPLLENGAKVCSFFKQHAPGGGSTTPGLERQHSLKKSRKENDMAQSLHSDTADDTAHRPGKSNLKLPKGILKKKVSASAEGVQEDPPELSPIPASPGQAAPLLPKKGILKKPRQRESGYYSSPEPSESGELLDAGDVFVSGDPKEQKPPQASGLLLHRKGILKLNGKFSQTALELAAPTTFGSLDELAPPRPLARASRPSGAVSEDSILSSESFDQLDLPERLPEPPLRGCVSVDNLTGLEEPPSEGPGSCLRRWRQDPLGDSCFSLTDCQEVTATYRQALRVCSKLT"}, "PBK (human)": {"target": "PBK (human) (UniProt Q96KB5)", "sequence (Q96KB5 whole entry, looked up)": "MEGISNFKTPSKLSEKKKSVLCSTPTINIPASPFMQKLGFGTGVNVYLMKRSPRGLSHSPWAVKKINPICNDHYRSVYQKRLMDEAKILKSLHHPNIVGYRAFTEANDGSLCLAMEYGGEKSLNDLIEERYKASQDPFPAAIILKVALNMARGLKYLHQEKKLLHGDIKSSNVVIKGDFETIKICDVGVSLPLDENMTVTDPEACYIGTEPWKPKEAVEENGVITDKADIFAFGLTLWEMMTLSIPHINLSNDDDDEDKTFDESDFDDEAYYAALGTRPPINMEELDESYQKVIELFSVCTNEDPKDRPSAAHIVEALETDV"}, "PRKCB1 (human)": {"target": "PRKCB1 (human) (UniProt P05771)"}, "PRKCD (human)": {"target": "PRKCD (human) (UniProt Q05655)"}, "PRKCE (human)": {"target": "PRKCE (human) (UniProt Q02156)"}, "PRKD3 (human)": {"target": "PRKD3 (human) (UniProt O94806)"}, "PRKG1 (human)": {"target": "PRKG1 (human) (UniProt Q13976)", "sequence (Q13976 whole entry, looked up)": "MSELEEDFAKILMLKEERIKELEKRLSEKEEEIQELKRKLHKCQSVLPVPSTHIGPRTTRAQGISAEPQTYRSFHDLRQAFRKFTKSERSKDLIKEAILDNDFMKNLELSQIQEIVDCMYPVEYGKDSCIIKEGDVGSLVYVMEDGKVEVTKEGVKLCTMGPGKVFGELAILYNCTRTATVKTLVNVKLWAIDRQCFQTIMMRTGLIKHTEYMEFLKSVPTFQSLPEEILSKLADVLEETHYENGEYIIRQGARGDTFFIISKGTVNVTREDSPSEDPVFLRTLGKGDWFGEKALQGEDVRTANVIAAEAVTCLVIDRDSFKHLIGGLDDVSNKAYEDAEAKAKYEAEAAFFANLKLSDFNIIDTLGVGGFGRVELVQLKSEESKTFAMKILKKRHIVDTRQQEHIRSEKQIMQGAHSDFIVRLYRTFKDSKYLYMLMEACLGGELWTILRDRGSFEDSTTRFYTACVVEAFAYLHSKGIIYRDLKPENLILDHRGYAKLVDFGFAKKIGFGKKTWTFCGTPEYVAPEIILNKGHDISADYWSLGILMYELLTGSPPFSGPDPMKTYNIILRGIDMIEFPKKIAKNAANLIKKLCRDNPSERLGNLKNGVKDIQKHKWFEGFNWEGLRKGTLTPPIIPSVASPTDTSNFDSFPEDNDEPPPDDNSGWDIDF"}, "PRKG2 (human)": {"target": "PRKG2 (human) (UniProt Q13237)"}, "ROCK1 (human)": {"target": "ROCK1 (human) (UniProt Q13464)"}, "RPS6KA5 KD2 (human)": {"target": "RPS6KA5 KD2 (human) (UniProt O75582)", "sequence (O75582 whole entry, looked up)": "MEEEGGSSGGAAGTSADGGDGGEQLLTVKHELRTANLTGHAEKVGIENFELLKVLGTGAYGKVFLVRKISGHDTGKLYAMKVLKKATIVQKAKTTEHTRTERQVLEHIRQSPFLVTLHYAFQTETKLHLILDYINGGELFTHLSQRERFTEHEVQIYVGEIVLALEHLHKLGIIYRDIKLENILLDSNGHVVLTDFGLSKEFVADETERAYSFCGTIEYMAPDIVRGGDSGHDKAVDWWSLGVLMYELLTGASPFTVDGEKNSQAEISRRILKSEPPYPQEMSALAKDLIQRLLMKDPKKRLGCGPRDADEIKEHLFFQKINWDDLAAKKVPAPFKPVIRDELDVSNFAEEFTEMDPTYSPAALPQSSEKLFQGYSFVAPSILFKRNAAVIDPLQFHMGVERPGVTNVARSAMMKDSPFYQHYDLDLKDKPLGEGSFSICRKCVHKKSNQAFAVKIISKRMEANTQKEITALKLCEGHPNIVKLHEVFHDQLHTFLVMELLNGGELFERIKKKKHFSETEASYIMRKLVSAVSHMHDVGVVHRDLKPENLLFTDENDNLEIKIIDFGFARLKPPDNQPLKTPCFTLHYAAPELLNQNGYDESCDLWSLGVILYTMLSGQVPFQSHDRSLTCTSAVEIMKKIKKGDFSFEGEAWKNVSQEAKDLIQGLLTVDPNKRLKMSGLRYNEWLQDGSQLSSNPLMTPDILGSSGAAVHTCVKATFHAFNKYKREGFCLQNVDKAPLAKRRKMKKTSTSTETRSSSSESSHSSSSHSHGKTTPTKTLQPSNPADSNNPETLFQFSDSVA"}, "SGK2 (human)": {"target": "SGK2 (human) (UniProt Q9HBY8)"}, "SLK (human)": {"target": "SLK (human) (UniProt Q9H2G2)"}, "SRMS (human)": {"target": "SRMS (human) (UniProt Q9H3Y6)"}, "STK4 (human)": {"target": "STK4 (human) (UniProt Q13043)"}, "TAOK1 (human)": {"target": "TAOK1 (human) (UniProt Q7L7X3)", "sequence (Q7L7X3 whole entry, looked up)": "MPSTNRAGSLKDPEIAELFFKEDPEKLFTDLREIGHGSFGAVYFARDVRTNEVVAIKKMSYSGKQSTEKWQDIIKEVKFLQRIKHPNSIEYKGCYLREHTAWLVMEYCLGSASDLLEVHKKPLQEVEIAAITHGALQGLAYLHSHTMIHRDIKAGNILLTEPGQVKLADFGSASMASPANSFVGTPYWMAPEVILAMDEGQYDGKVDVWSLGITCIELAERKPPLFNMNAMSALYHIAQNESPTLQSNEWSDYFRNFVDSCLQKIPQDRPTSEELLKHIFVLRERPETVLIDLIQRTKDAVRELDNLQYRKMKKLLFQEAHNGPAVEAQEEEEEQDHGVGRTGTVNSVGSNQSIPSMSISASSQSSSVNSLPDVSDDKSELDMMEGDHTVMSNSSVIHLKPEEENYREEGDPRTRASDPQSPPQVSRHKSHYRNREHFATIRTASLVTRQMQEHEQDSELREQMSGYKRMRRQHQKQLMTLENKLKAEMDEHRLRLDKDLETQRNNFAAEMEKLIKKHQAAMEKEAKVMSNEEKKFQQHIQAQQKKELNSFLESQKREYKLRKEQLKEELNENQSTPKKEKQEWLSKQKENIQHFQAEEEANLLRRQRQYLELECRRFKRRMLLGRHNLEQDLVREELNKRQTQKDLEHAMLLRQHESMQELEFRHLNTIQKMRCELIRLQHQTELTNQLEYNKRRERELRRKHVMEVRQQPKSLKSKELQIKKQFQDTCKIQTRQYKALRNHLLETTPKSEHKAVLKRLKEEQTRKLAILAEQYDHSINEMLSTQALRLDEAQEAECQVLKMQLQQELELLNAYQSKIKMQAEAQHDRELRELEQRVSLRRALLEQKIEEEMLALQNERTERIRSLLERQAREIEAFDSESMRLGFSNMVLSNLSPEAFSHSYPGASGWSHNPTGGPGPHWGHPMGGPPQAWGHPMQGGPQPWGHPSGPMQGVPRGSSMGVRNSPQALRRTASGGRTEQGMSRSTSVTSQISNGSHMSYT"}, "TTK (human)": {"target": "TTK (human) (UniProt P33981)", "sequence (P33981 whole entry, looked up)": "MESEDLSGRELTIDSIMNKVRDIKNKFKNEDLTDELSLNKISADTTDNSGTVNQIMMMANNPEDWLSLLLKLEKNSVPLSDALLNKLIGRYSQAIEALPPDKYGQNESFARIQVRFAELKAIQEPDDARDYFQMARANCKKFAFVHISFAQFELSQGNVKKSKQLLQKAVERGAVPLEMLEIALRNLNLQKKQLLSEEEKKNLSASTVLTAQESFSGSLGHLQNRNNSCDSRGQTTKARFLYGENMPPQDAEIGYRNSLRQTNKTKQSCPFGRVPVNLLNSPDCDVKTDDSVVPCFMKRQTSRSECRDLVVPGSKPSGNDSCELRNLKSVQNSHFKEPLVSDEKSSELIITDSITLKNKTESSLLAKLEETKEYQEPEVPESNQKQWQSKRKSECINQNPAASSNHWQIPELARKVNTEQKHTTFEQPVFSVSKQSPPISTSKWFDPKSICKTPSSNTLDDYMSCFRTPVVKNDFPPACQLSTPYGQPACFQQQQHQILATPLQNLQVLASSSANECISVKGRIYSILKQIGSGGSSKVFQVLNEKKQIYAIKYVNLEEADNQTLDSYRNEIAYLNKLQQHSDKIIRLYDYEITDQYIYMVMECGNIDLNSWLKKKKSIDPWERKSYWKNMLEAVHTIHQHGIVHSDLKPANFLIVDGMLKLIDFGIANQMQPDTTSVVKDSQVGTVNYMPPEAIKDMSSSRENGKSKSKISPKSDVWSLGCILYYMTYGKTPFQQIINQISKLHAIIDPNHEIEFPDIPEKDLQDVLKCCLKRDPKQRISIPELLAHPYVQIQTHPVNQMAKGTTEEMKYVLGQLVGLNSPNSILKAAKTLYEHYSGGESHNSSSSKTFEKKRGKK"}, "VRK1 (human)": {"target": "VRK1 (human) (UniProt Q99986)"}, "YES1 (human)": {"target": "YES1 (human) (UniProt P07947)"}},
  "note": "“And” between values parts separate entries of the source, which are not always exact repeats. Equal values may be shown once.",
  "data": [
    {"smiles": "COc1ccc2c(c[n+](C)c3c4cc5c(cc4ccc23)OCO5)c1OC", "values": [
      {"measurement": "residual activity", "setting": "AKT2 (human)", "value": 93.6, "unit": "%"},
      {"measurement": "residual activity", "setting": "BMX (human)", "value": 104, "unit": "%"},
      {"measurement": "residual activity", "setting": "BRSK1 (human)", "value": 90.8, "unit": "%"},
      {"measurement": "residual activity", "setting": "CAMK2D (human)", "value": 90.4, "unit": "%"},
      {"measurement": "residual activity", "setting": "CDC42BPB (human)", "value": 107, "unit": "%"},
      {"measurement": "residual activity", "setting": "CDK4 CCND1 (human)", "value": 87.5, "unit": "%"},
      {"measurement": "residual activity", "setting": "CLK2 (human)", "value": 90.6, "unit": "%"},
      {"measurement": "residual activity", "setting": "CSK (human)", "value": 106, "unit": "%"},
      {"measurement": "residual activity", "setting": "DAPK1 (human)", "value": 86.7, "unit": "%"},
      {"measurement": "residual activity", "setting": "DMPK (human)", "value": 100, "unit": "%"},
      {"measurement": "residual activity", "setting": "EPHA4 (human)", "value": 103, "unit": "%"},
      {"measurement": "residual activity", "setting": "EPHB1 (human)", "value": 90.4, "unit": "%"},
      {"measurement": "residual activity", "setting": "GRK6 (human)", "value": 104, "unit": "%"},
      {"measurement": "residual activity", "setting": "GSG2 (human)", "value": 98.8, "unit": "%"},
      {"measurement": "residual activity", "setting": "IKBKE (human)", "value": 101, "unit": "%"},
      {"measurement": "residual activity", "setting": "LCK (human)", "value": 89, "unit": "%"},
      {"measurement": "residual activity", "setting": "LIMK1 (human)", "value": 109, "unit": "%"},
      {"measurement": "residual activity", "setting": "MAP2K1 (human)", "value": 97.8, "unit": "%"},
      {"measurement": "residual activity", "setting": "MAP3K7 TAB1 (human)", "value": 100, "unit": "%"},
      {"measurement": "residual activity", "setting": "MLTK (human)", "value": 94.7, "unit": "%"},
      {"measurement": "residual activity", "setting": "NEK2 (human)", "value": 98.6, "unit": "%"},
      {"measurement": "residual activity", "setting": "NEK9 (human)", "value": 97, "unit": "%"},
      {"measurement": "residual activity", "setting": "NTRK3 (human)", "value": 95.2, "unit": "%"},
      {"measurement": "residual activity", "setting": "NUAK2 (human)", "value": 98.9, "unit": "%"},
      {"measurement": "residual activity", "setting": "PBK (human)", "value": 102, "unit": "%"},
      {"measurement": "residual activity", "setting": "PRKCB1 (human)", "value": 100, "unit": "%"},
      {"measurement": "residual activity", "setting": "PRKCD (human)", "value": 96.8, "unit": "%"},
      {"measurement": "residual activity", "setting": "PRKCE (human)", "value": 93.6, "unit": "%"},
      {"measurement": "residual activity", "setting": "PRKD3 (human)", "value": 99.3, "unit": "%"},
      {"measurement": "residual activity", "setting": "PRKG1 (human)", "value": "97.6% and 98.8%"},
      {"measurement": "residual activity", "setting": "PRKG2 (human)", "value": 68.7, "unit": "%"},
      {"measurement": "residual activity", "setting": "ROCK1 (human)", "value": 99.4, "unit": "%"},
      {"measurement": "residual activity", "setting": "RPS6KA5 KD2 (human)", "value": 83.3, "unit": "%"},
      {"measurement": "residual activity", "setting": "SGK2 (human)", "value": 99.1, "unit": "%"},
      {"measurement": "residual activity", "setting": "SLK (human)", "value": 87.4, "unit": "%"},
      {"measurement": "residual activity", "setting": "SRMS (human)", "value": 86, "unit": "%"},
      {"measurement": "residual activity", "setting": "STK4 (human)", "value": 98.9, "unit": "%"},
      {"measurement": "residual activity", "setting": "TAOK1 (human)", "value": 105, "unit": "%"},
      {"measurement": "residual activity", "setting": "TTK (human)", "value": 101, "unit": "%"},
      {"measurement": "residual activity", "setting": "VRK1 (human)", "value": 106, "unit": "%"},
      {"measurement": "residual activity", "setting": "YES1 (human)", "value": 93.8, "unit": "%"}
    ]},
    {"smiles": "CC[n+]1c(/C=C/N(C)c2ccccc2)n(-c2ccccc2)c2ccc(-c3nc4ccccc4s3)cc21", "values": [
      {"measurement": "residual activity", "setting": "AKT2 (human)", "value": 99.6, "unit": "%"},
      {"measurement": "residual activity", "setting": "BMX (human)", "value": 108, "unit": "%"},
      {"measurement": "residual activity", "setting": "BRSK1 (human)", "value": 101, "unit": "%"},
      {"measurement": "residual activity", "setting": "CAMK2D (human)", "value": 94, "unit": "%"},
      {"measurement": "residual activity", "setting": "CDC42BPB (human)", "value": 95, "unit": "%"},
      {"measurement": "residual activity", "setting": "CDK4 CCND1 (human)", "value": 107, "unit": "%"},
      {"measurement": "residual activity", "setting": "CLK2 (human)", "value": 98.4, "unit": "%"},
      {"measurement": "residual activity", "setting": "CSK (human)", "value": 100, "unit": "%"},
      {"measurement": "residual activity", "setting": "DAPK1 (human)", "value": 74.7, "unit": "%"},
      {"measurement": "residual activity", "setting": "DMPK (human)", "value": 93.9, "unit": "%"},
      {"measurement": "residual activity", "setting": "EPHA4 (human)", "value": 91.9, "unit": "%"},
      {"measurement": "residual activity", "setting": "EPHB1 (human)", "value": 104, "unit": "%"},
      {"measurement": "residual activity", "setting": "GRK6 (human)", "value": 98.9, "unit": "%"},
      {"measurement": "residual activity", "setting": "GSG2 (human)", "value": 110, "unit": "%"},
      {"measurement": "residual activity", "setting": "IKBKE (human)", "value": 94.7, "unit": "%"},
      {"measurement": "residual activity", "setting": "LCK (human)", "value": 89.9, "unit": "%"},
      {"measurement": "residual activity", "setting": "LIMK1 (human)", "value": 98.3, "unit": "%"},
      {"measurement": "residual activity", "setting": "MAP2K1 (human)", "value": 93.5, "unit": "%"},
      {"measurement": "residual activity", "setting": "MAP3K7 TAB1 (human)", "value": 98.8, "unit": "%"},
      {"measurement": "residual activity", "setting": "MLTK (human)", "value": 93.8, "unit": "%"},
      {"measurement": "residual activity", "setting": "NEK2 (human)", "value": 100, "unit": "%"},
      {"measurement": "residual activity", "setting": "NEK9 (human)", "value": 108, "unit": "%"},
      {"measurement": "residual activity", "setting": "NTRK3 (human)", "value": 100, "unit": "%"},
      {"measurement": "residual activity", "setting": "NUAK2 (human)", "value": 93.3, "unit": "%"},
      {"measurement": "residual activity", "setting": "PBK (human)", "value": 107, "unit": "%"},
      {"measurement": "residual activity", "setting": "PRKCB1 (human)", "value": 102, "unit": "%"},
      {"measurement": "residual activity", "setting": "PRKCD (human)", "value": 93.3, "unit": "%"},
      {"measurement": "residual activity", "setting": "PRKCE (human)", "value": 97.7, "unit": "%"},
      {"measurement": "residual activity", "setting": "PRKD3 (human)", "value": 97.4, "unit": "%"},
      {"measurement": "residual activity", "setting": "PRKG1 (human)", "value": "104% and 105%"},
      {"measurement": "residual activity", "setting": "PRKG2 (human)", "value": 92.4, "unit": "%"},
      {"measurement": "residual activity", "setting": "ROCK1 (human)", "value": 98.1, "unit": "%"},
      {"measurement": "residual activity", "setting": "RPS6KA5 KD2 (human)", "value": 111, "unit": "%"},
      {"measurement": "residual activity", "setting": "SGK2 (human)", "value": 123, "unit": "%"},
      {"measurement": "residual activity", "setting": "SLK (human)", "value": 101, "unit": "%"},
      {"measurement": "residual activity", "setting": "SRMS (human)", "value": 93.7, "unit": "%"},
      {"measurement": "residual activity", "setting": "STK4 (human)", "value": 98.3, "unit": "%"},
      {"measurement": "residual activity", "setting": "TAOK1 (human)", "value": 99.4, "unit": "%"},
      {"measurement": "residual activity", "setting": "TTK (human)", "value": 96.6, "unit": "%"},
      {"measurement": "residual activity", "setting": "VRK1 (human)", "value": 90.9, "unit": "%"},
      {"measurement": "residual activity", "setting": "YES1 (human)", "value": 94.9, "unit": "%"}
    ]}
  ]
}
